Data taken from PubChem BioAssay (NCI).
Several values for one entry are separate records, joined by “and”; a condition that tells them apart may be missing. Equal entries are not always repeated.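 1) Cells in 96-well plates. 2) Compound, 48 h, 5 concentrations. 3) Linear interpolation between surrounding doses. 4) Unreached endpoint = highest concentration. Abbreviation: GI50, concentration required for 50% inhibition of growth. TGI denotes the concentration required for complete inhibition of growth.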

What follows are molecules tested on LXFL 529 NSCLC (assay: growth of human tumour cells (NCI), 48 h).

SMILES	TGI	GI50
O=C1CC[C@H]2CNC(=O)C[C@H]2C1	> 100 µM	–
O=[N+]([O-])c1ccc(NSc2ccccc2)cc1	70.9 µM	–
Cc1cccc2c3ccc4c(c3n(C)c12)C(=O)C=CC4=O	> 100 µM	–
COc1ccc(N=Cc2cc(OC)c(OC)c(OC)c2)cc1	> 100 µM	–
COc1cc2c(c(O)c1C)C(=O)C(Cl)=CC2=O	19.4 µM	–
CN(C)CCNC(=O)c1cccc2nc3c(Cl)cccc3nc12	> 49.5 µM	–
C[C@]12CCC(=O)C=C1CC[C@@H]1C2CC[C@]2(C)NC(=O)C(C#N)CC12 (stereo partly specified)	> 100 µM	–
O=S(=O)(O)C(O)/C=C/c1ccccc1 (stereo unspecified)	> 100 µM	–
C/C(=N\NC(N)=S)c1ccc(C)cc1C	> 100 µM	–
OCc1c(-c2cccc3ccccc23)sc(-c2cccc3ccccc23)c1CO	27.6 µM	–
CC1=CCCC(OC(N)=O)C1 (stereo unspecified)	> 100 µM	–
OCCNCO	> 100 µM	–
CC(C)(C)C1=NC(S)NC(CCC(=O)Nc2ccccc2[N+](=O)[O-])=C1 (stereo unspecified)	> 100 µM	–
COc1cc2c(cc1O)[C@H](Cc1ccc(Oc3cc(C[C@H]4c5cc(OC)c(OC)cc5CCN4C)ccc3OC)cc1)NCC2	28.2 µM	–
O=C1/C(=C/c2ccccc2)CN(C(=O)Oc2ccc(Cl)cc2)C/C1=C\c1ccccc1	3.64 µM	–
COc1cc([C@@H]2c3cc4c(cc3[C@@H](NC(=O)c3cccc([N+](=O)[O-])c3)C3COC(=O)[C@@H]32)OCO4)cc(OC)c1O (stereo partly specified)	> 100 µM	–
Cc1c(C(=O)/C=C/c2cccc3ccccc23)[n+](=O)c2ccccc2n1[O-]	20.6 µM	–
CN(C)c1ccc(/C=C2\C[N+](C)(C)C/C(=C\c3ccc(N(C)C)cc3)C2=O)cc1	20.4 µM	–
O=C1NC(=O)C2C(=O)NC(=O)C1C2(c1ccccc1)c1ccc(Cl)cc1 (stereo unspecified)	> 100 µM	–

SMILES	TGI	GI50
Cc1nc2nnc(C)n2c2c1C(=O)Nc1ccccc1N2	> 100 µM	–
CC1=C[C@@H]2Cc3occc3C(C)(C)[C@@H]2CC1	> 100 µM	–
CCCCCCCCCCCCCCC1OC(=O)c2ccccc21 (stereo unspecified)	> 100 µM	–
O=c1c(Cl)c(Cl)cnn1-c1ccccc1	11.9 µM and 3.13 µM	–
O=c1[nH]c(=O)n(C2CC(O)C(CO)O2)cc1C#Cc1c(F)c(F)c(F)c(F)c1F (stereo unspecified)	> 100 µM	–
COC(=O)C(CC(=O)c1cc2c(cc1I)OCO2)Cc1cc(OC)c(OC)c(OC)c1I (stereo unspecified)	> 100 µM	–
COC(=O)c1c(OC)cccc1C(=O)O	> 100 µM	–
Cc1cccc(C(C)(C)C)c1NC(=O)C(=O)Cc1nc2ccccc2s1	> 100 µM	–
C#CC(C)(C)Oc1cc(O)c2c(=O)c3ccccc3n(C)c2c1	> 100 µM	–
CCCCn1/c(=N/C(=S)N(C)C)ss/c1=N\C(=S)N(C)C	> 100 µM	–
O=C(O/N=C1/CCC/C1=C\c1ccccc1)c1ccc([N+](=O)[O-])cc1	> 100 µM	–
CC(=O)/C=C/c1cccc(N=S)c1	32.9 µM	–
C1CN2N3CCCC23C1 (stereo unspecified)	> 100 µM	–
O=C(Nc1ccccc1[N+](=O)[O-])c1ccccc1	> 100 µM	–
C[Si](C)(C)c1ccc(CC2(Cc3ccc([Si](C)(C)C)cc3)CCNC2)cc1	4.79 µM	–
CCC1CCC2CCCC(C)N12 (stereo unspecified)	> 100 µM	–
O=C(O)CCCc1ccc(N(CCCl)CCCl)cc1	35.4 µM and 199 µM	19.5 µM
CC1CCC[P+](Cc2ccccc2)(c2ccccc2)CC1 (stereo unspecified)	> 100 µM	–

These molecules were tested on SNB-78 CNS (assay: growth of human tumour cells (NCI), 48 h).

SMILES	TGI
O=C1CC[C@H]2CNC(=O)C[C@H]2C1	> 100 µM
O=[N+]([O-])c1ccc(NSc2ccccc2)cc1	> 100 µM
Cc1cccc2c3ccc4c(c3n(C)c12)C(=O)C=CC4=O	> 100 µM
COc1ccc(N=Cc2cc(OC)c(OC)c(OC)c2)cc1	> 100 µM
COc1cc2c(c(O)c1C)C(=O)C(Cl)=CC2=O	17.4 µM
C[C@]12CCC(=O)C=C1CC[C@@H]1C2CC[C@]2(C)NC(=O)C(C#N)CC12 (stereo partly specified)	> 100 µM
C/C(=N\NC(N)=S)c1ccc(C)cc1C	> 100 µM
OCc1c(-c2cccc3ccccc23)sc(-c2cccc3ccccc23)c1CO	31.5 µM
CC1=CCCC(OC(N)=O)C1 (stereo unspecified)	> 100 µM
OCCNCO	> 100 µM
CC(C)(C)C1=NC(S)NC(CCC(=O)Nc2ccccc2[N+](=O)[O-])=C1 (stereo unspecified)	> 100 µM
O=C1/C(=C/c2ccccc2)CN(C(=O)Oc2ccc(Cl)cc2)C/C1=C\c1ccccc1	> 26.8 µM
COc1cc([C@@H]2c3cc4c(cc3[C@@H](NC(=O)c3cccc([N+](=O)[O-])c3)C3COC(=O)[C@@H]32)OCO4)cc(OC)c1O (stereo partly specified)	> 100 µM
Cc1c(C(=O)/C=C/c2cccc3ccccc23)[n+](=O)c2ccccc2n1[O-]	47.8 µM
CC1(C)N=C(N)N=C(N)N1c1ccc(CCCCc2ccc(S(=O)(=O)F)cc2Cl)c(Cl)c1	48.6 µM
CN(C)c1ccc(/C=C2\C[N+](C)(C)C/C(=C\c3ccc(N(C)C)cc3)C2=O)cc1	> 95.8 µM

SMILES	TGI
O=C1NC(=O)C2C(=O)NC(=O)C1C2(c1ccccc1)c1ccc(Cl)cc1 (stereo unspecified)	> 100 µM
Cc1nc2nnc(C)n2c2c1C(=O)Nc1ccccc1N2	> 100 µM
CC1=C[C@@H]2Cc3occc3C(C)(C)[C@@H]2CC1	66.6 µM
CCCCCCCCCCCCCCC1OC(=O)c2ccccc21 (stereo unspecified)	> 100 µM
O=c1c(Cl)c(Cl)cnn1-c1ccccc1	20.8 µM
COC(=O)c1c(OC)cccc1C(=O)O	> 100 µM
Cc1cccc(C(C)(C)C)c1NC(=O)C(=O)Cc1nc2ccccc2s1	> 100 µM
C#CC(C)(C)Oc1cc(O)c2c(=O)c3ccccc3n(C)c2c1	> 100 µM
CCCCn1/c(=N/C(=S)N(C)C)ss/c1=N\C(=S)N(C)C	> 100 µM
O=C(O/N=C1/CCC/C1=C\c1ccccc1)c1ccc([N+](=O)[O-])cc1	> 100 µM
CC(=O)/C=C/c1cccc(N=S)c1	> 100 µM
C1CN2N3CCCC23C1 (stereo unspecified)	> 100 µM
O=C(Nc1ccccc1[N+](=O)[O-])c1ccccc1	> 100 µM
C[Si](C)(C)c1ccc(CC2(Cc3ccc([Si](C)(C)C)cc3)CCNC2)cc1	8.87 µM
CC1CCC[P+](Cc2ccccc2)(c2ccccc2)CC1 (stereo unspecified)	> 100 µM

Each molecule was assayed on MDA-MB-231 breast (assay: growth of human tumour cells (NCI), 48 h).

SMILES	TGI	GI50
COc1cc2c(c(O)c1C)C(=O)C(Cl)=CC2=O	27.8 µM	–
CC1(C)N=C(N)N=C(N)N1c1ccc(CCCCc2ccc(S(=O)(=O)F)cc2Cl)c(Cl)c1	82.3 µM	–
CN(C)c1ccc(/C=C2\C[N+](C)(C)C/C(=C\c3ccc(N(C)C)cc3)C2=O)cc1	36.7 µM	–
O=c1c(Cl)c(Cl)cnn1-c1ccccc1	3.34 µM	–
O=C(O)CCCc1ccc(N(CCCl)CCCl)cc1	334 µM and 606 µM	265 µM
CN(C)S(=O)(=O)Nc1ccccn1	> 100 µM	–
COc1cc2c(c(OC)c1OC)-c1ccc(NCc3ccccc3)c(=O)cc1[C@@H](NC(C)=O)CC2	11.7 µM	0.461 µM

The molecules below were run on DMS 273 small cell lung (assay: growth of human tumour cells (NCI), 48 h).

SMILES	TGI	GI50
O=C1CC[C@H]2CNC(=O)C[C@H]2C1	> 100 µM	–
O=[N+]([O-])c1ccc(NSc2ccccc2)cc1	33.7 µM	–
Cc1cccc2c3ccc4c(c3n(C)c12)C(=O)C=CC4=O	> 100 µM	–
COc1ccc(N=Cc2cc(OC)c(OC)c(OC)c2)cc1	> 100 µM	33 µM
COc1cc2c(c(O)c1C)C(=O)C(Cl)=CC2=O	34.5 µM	–
CN(C)CCNC(=O)c1cccc2nc3c(Cl)cccc3nc12	> 100 µM	–
C[C@]12CCC(=O)C=C1CC[C@@H]1C2CC[C@]2(C)NC(=O)C(C#N)CC12 (stereo partly specified)	> 100 µM	–
O=S(=O)(O)C(O)/C=C/c1ccccc1 (stereo unspecified)	> 100 µM	–
C/C(=N\NC(N)=S)c1ccc(C)cc1C	> 100 µM	–
OCc1c(-c2cccc3ccccc23)sc(-c2cccc3ccccc23)c1CO	28.5 µM	–
CC1=CCCC(OC(N)=O)C1 (stereo unspecified)	> 100 µM	–
OCCNCO	> 100 µM	–
COc1cc2c(cc1O)[C@H](Cc1ccc(Oc3cc(C[C@H]4c5cc(OC)c(OC)cc5CCN4C)ccc3OC)cc1)NCC2	43.2 µM	–
O=C1/C(=C/c2ccccc2)CN(C(=O)Oc2ccc(Cl)cc2)C/C1=C\c1ccccc1	4.18 µM	–
COc1cc([C@@H]2c3cc4c(cc3[C@@H](NC(=O)c3cccc([N+](=O)[O-])c3)C3COC(=O)[C@@H]32)OCO4)cc(OC)c1O (stereo partly specified)	> 100 µM	–
Cc1c(C(=O)/C=C/c2cccc3ccccc23)[n+](=O)c2ccccc2n1[O-]	24.5 µM	–
CN(C)c1ccc(/C=C2\C[N+](C)(C)C/C(=C\c3ccc(N(C)C)cc3)C2=O)cc1	18.5 µM	–
O=C1NC(=O)C2C(=O)NC(=O)C1C2(c1ccccc1)c1ccc(Cl)cc1 (stereo unspecified)	> 100 µM	–

SMILES	TGI	GI50
Cc1nc2nnc(C)n2c2c1C(=O)Nc1ccccc1N2	> 100 µM	–
CC1=C[C@@H]2Cc3occc3C(C)(C)[C@@H]2CC1	26.8 µM	–
O=c1c(Cl)c(Cl)cnn1-c1ccccc1	3.94 µM and 12.4 µM	2.03 µM and 5.59 µM
O=c1[nH]c(=O)n(C2CC(O)C(CO)O2)cc1C#Cc1c(F)c(F)c(F)c(F)c1F (stereo unspecified)	> 100 µM	–
COC(=O)C(CC(=O)c1cc2c(cc1I)OCO2)Cc1cc(OC)c(OC)c(OC)c1I (stereo unspecified)	> 100 µM	–
COC(=O)c1c(OC)cccc1C(=O)O	> 100 µM	–
Cc1cccc(C(C)(C)C)c1NC(=O)C(=O)Cc1nc2ccccc2s1	> 100 µM	–
C#CC(C)(C)Oc1cc(O)c2c(=O)c3ccccc3n(C)c2c1	> 100 µM	–
CCCCn1/c(=N/C(=S)N(C)C)ss/c1=N\C(=S)N(C)C	> 100 µM	–
O=C(O/N=C1/CCC/C1=C\c1ccccc1)c1ccc([N+](=O)[O-])cc1	> 100 µM	–
CC(=O)/C=C/c1cccc(N=S)c1	20.9 µM	–
C1CN2N3CCCC23C1 (stereo unspecified)	> 100 µM	–
O=C(Nc1ccccc1[N+](=O)[O-])c1ccccc1	> 100 µM	–
C[Si](C)(C)c1ccc(CC2(Cc3ccc([Si](C)(C)C)cc3)CCNC2)cc1	3.42 µM	–
CCC1CCC2CCCC(C)N12 (stereo unspecified)	> 100 µM	–
O=C(O)CCCc1ccc(N(CCCl)CCCl)cc1	28 µM and 161 µM	3.84 µM
CC1CCC[P+](Cc2ccccc2)(c2ccccc2)CC1 (stereo unspecified)	> 100 µM	–

Each molecule was assayed on M19-MEL melanoma (assay: growth of human tumour cells (NCI), 48 h).

SMILES	TGI
O=C1CC[C@H]2CNC(=O)C[C@H]2C1	> 100 µM
Cc1cccc2c3ccc4c(c3n(C)c12)C(=O)C=CC4=O	> 100 µM
COc1ccc(N=Cc2cc(OC)c(OC)c(OC)c2)cc1	> 100 µM
COc1cc2c(c(O)c1C)C(=O)C(Cl)=CC2=O	20.9 µM
CN(C)CCNC(=O)c1cccc2nc3c(Cl)cccc3nc12	13.1 µM
